The source made the active and inactive calls.
Experiments:
[1] = test system: Streptococcus sp. 'group A'; test: Streptococcus pyogenes SK(-)GAS viability under kanamycin – luminescence, BacTiterGlo, confirmation, counter-screen for streptokinase expression inhibitor project, dose response (AID 1900); assay type: functional, organism-based
Streptokinase A = biological target: T1, Streptokinase A (Streptococcus pyogenes serotype M1, UniProt P10520); test: viability-normalized secreted streptokinase activity reduction – plasminogen activation absorbance, OD405, dose response (AID 1914); assay type: functional, Streptococcus pyogenes M1 GAS;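 note: secreted streptokinase activity via plasminogen activation per viability signal from cell pellet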
T1 sequence (P10520 whole entry): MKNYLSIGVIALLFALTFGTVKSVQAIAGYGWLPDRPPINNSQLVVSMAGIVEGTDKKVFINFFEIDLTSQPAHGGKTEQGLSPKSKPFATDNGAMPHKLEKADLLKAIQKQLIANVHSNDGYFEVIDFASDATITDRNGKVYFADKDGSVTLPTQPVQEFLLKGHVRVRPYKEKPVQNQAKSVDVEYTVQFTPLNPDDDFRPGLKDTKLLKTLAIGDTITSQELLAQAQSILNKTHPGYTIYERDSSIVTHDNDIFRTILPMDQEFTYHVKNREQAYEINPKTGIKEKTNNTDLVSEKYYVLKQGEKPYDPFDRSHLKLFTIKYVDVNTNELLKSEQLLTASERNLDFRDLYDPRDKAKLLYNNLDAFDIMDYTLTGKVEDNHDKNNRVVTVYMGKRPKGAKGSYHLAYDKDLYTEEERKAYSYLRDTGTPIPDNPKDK

[2] = biological target: T2, G-protein coupled receptor 55 (Homo sapiens, UniProt Q9Y2T6); test: inhibition of LPI-stimulated GPR55 beta-arrestin translocation – imaging, U2OS, beta-arrestin-GFP, LPI agonist, primary screen (AID 2013); assay type: functional;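 note: antagonist potency measured as reduced agonist-driven arrestin aggregation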
Streptococcus = test: GAS UMAA2166 growth inhibition – luminescence, BacTiterGlo, counter-screen for streptokinase expression inhibitor project, dose response (AID 1915); assay type: functional, organism-based;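 note: potency for reduction of bacterial viability or growth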
Cannabinoid receptor 1 [3] = biological target: T3, Cannabinoid receptor 1 (Homo sapiens, UniProt P21554); test: SAR analysis of antagonists of the Cannabinoid Receptor 1 using an Image-Based Assay - Set 2. [Related pubchem assays (depositor defined):AID2013, AID2026]; assay type: functional
[4] = biological target: T4, G-protein coupled receptor 35 (Homo sapiens, UniProt Q9HC97); test: SAR analysis of Agonists of the GPR35 Receptor using an Image-Based Assay - Set 2. [Related pubchem assays (depositor defined):AID2013, AID2026]; assay type: functional
Cannabinoid receptor 2 [5] = biological target: T5, Cannabinoid receptor 2 (Homo sapiens, UniProt P34972); test: SAR analysis of antagonists of the Cannabinoid Receptor 2 using an Image-Based Assay. [Related pubchem assays (depositor defined):AID2013, AID2026]; assay type: functional
[6] = biological target: T6, Short transient receptor potential channel 4 (Mus musculus, UniProt Q9QUQ5); test: block of DAMGO-driven TRPC4 calcium entry – cell-based, HEK293 TRPC4/mu-opioid, Fluo-4 calcium, dose response (AID 434942); assay type: functional;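 note: potency of inhibitors blocking the TRPC4 calcium response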
T6 sequence (Q9QUQ5 whole entry): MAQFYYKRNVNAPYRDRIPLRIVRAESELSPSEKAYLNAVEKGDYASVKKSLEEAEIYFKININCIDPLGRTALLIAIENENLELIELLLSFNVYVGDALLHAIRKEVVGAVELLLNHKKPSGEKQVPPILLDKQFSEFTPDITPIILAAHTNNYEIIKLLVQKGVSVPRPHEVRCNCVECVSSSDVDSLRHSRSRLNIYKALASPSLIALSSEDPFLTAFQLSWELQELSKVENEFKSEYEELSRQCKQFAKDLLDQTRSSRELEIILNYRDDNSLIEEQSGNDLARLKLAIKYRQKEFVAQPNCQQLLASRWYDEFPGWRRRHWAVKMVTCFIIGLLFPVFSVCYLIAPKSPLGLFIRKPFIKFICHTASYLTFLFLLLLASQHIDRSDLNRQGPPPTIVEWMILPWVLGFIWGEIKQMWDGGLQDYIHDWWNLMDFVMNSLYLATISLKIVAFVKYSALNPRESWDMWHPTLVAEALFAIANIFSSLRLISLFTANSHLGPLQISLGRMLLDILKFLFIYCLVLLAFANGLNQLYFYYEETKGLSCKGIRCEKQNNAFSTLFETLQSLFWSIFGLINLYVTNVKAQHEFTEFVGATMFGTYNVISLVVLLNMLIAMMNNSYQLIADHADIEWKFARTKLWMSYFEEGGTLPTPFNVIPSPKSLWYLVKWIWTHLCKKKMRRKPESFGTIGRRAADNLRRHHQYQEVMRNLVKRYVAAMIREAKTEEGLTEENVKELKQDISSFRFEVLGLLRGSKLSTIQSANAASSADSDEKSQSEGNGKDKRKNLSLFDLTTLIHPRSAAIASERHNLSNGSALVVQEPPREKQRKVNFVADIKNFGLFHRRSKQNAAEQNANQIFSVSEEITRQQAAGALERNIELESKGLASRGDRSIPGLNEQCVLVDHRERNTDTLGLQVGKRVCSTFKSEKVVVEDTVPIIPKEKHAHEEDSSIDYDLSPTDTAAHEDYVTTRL

Cannabinoid receptor 1 [7] = biological target: T3, Cannabinoid receptor 1; test: SAR analysis of agonists of the Cannabinoid Receptor 1 using an Image-Based Assay - Set 2. [Related pubchem assays (depositor defined):AID2013, AID2026]; assay type: functional
[8] = biological target: T4, G-protein coupled receptor 35; test: SAR analysis of Antagonists of the GPR35 Receptor using an Image-Based Assay - Set 3. [Related pubchem assays (depositor defined):AID2013, AID2026]; assay type: functional
[9] = biological target: T2, G-protein coupled receptor 55; test: blockade of LPI-induced GPR55 arrestin translocation – imaging, U2OS, beta-arrestin-GFP, LPI agonist, set 2, SAR follow-up (AID 2820); assay type: functional
Cannabinoid receptor 2 [10] = biological target: T5, Cannabinoid receptor 2; test: SAR analysis of agonists of the Cannabinoid Receptor 2 using an Image-Based Assay. [Related pubchem assays (depositor defined):AID2013, AID2026]; assay type: functional

T5 sequence (P34972 whole entry): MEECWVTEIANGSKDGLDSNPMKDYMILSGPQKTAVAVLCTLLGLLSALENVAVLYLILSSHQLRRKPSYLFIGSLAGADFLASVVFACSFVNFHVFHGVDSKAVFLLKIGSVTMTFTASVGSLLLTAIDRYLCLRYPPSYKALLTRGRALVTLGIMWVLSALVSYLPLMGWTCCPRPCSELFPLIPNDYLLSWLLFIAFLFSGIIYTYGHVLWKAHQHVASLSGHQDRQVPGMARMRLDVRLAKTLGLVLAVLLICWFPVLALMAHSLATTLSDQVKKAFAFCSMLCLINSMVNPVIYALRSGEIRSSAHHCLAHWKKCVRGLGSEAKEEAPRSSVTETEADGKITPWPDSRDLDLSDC
T4 sequence (Q9HC97 whole entry): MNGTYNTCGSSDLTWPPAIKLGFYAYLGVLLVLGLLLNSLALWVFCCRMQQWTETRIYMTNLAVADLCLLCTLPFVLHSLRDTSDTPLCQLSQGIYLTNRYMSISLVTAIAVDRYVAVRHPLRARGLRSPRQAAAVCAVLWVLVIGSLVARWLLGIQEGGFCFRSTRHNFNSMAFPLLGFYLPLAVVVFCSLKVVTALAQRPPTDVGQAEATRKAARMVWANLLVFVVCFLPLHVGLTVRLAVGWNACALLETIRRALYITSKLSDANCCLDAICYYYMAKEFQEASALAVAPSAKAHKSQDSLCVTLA
T3 sequence (P21554 whole entry): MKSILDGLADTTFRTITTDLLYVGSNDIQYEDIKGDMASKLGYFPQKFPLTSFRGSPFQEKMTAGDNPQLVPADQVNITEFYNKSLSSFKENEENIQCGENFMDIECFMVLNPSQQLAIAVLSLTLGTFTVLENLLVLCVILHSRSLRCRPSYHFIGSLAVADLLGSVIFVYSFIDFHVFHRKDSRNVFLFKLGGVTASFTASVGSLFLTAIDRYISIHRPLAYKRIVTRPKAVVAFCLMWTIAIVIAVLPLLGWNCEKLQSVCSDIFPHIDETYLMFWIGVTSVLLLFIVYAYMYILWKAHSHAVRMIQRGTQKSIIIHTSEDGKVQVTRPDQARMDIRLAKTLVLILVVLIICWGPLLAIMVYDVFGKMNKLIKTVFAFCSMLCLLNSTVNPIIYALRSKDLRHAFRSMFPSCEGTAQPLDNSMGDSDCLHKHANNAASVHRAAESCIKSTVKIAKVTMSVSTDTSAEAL
T2 sequence (Q9Y2T6 whole entry): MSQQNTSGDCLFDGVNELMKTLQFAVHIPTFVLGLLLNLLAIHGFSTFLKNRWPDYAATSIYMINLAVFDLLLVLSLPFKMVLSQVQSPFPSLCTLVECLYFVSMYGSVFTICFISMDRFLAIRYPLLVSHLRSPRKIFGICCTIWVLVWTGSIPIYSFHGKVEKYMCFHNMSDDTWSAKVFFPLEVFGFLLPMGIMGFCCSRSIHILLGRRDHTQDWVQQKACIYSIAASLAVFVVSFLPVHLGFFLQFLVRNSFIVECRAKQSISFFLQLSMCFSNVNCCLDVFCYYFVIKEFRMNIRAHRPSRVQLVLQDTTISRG

## COc1ccc(NC(=O)c2cnn3c(O)cc(C4CCN(C(=O)OC(C)(C)C)CC4)nc23)cc1Cl
[1]
  EC50: 3.36 µM (active)
Streptokinase A
  EC50: > 150 µM (not active)
[2]
  IC50: < 0.5 µM (active)
Streptococcus
  EC50: 17.8 µM (active)
Cannabinoid receptor 1 [3]
  IC50: > 32 µM (inactive)
[4]
  EC50: 0.506 µM (active)
Cannabinoid receptor 2 [5]
  IC50: > 32 µM (inactive)
[6]
  EC50: 1.33 µM (active)
Cannabinoid receptor 1 [7]
  EC50: > 32 µM (inactive)
[8]
  IC50: 29.4 µM (inactive)
[9]
  IC50: 0.422 µM (active)
Cannabinoid receptor 2 [10]
  EC50: > 32 µM (inactive)

From ChEMBL document CHEMBL1201862, “PubChem BioAssay data set” (2004)
